Source: US4924002A, “Novel process for the preparation of pyrazoles from isoxazoles” (Warner-Lambert Company, priority 1989, dated 1990)

How the values were obtained:
[1] = Ultraviolet absorbing properties compared with p-aminobenzoic acid; assay type: physicochemical; set-up: UV max: unit not given here; conditions: for α: ultraviolet absorption
Method: The ultraviolet absorbing properties of the compounds of the present invention is generally shown by a comparison with p-aminobenzoic acid which is the active ingredient in most commercial sunscreens. Such properties are within the ultraviolet absorbing ranges of […] range critical to effectiveness. A representative compound of the invention is compared to p-aminobenzoic acid in the following Table.

[2] = target: T1, cyclooxygenase (Rattus norvegicus, UniProt Q63921); assay: ARBC RBL-1 whole cell cyclooxygenase assay (PGF2α by RIA); assay type: cell-based; conditions: RBL-1 intact cells, 5 μM A23187, PGF2α
T1 construct: host or cells: RBL-1 (rat basophilic leukemia)
T1 sequence (Q63921 27-602): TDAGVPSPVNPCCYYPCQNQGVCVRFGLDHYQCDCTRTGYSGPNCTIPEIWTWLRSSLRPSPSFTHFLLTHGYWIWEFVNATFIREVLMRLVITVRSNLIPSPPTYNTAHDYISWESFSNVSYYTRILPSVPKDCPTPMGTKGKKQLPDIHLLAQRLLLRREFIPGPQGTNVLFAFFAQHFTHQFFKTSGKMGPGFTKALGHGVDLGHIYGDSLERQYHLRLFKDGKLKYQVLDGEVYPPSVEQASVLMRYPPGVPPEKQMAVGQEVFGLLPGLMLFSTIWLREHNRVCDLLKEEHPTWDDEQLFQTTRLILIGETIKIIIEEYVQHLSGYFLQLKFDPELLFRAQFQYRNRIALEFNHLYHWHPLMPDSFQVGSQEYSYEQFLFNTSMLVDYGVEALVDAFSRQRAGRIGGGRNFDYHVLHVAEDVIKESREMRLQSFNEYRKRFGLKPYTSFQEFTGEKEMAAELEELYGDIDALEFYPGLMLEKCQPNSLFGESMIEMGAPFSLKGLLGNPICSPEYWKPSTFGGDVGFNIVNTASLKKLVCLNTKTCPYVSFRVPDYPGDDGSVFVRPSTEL
Method: (§1) ARBL/ARBC Whole Cell 5-Lipoxygenase and Cyclooxygenase Assays
(§2) The rat basophilic leukemia cell line (RBL-1) was obtained from the American Type Culture Collection (Rockville, Md.).
(§3) Radioimmuno assay (RIA) kits of LTB4 and PGF2α were obtained from Amersham (Arlington Heights, Ill.) and Seragen (Boston, Mass.) respectively.
(§4) All tissue culture media were obtained from GIBCO (Grand Island, N.Y.).
(§5) RBL-1 cells were grown in culture (suspension) in Eagle's minimum essential medium supplemented with 12% fetal bovine serum and 1:100 antibiotic-antimycotic mixture at 37° C. in an incubator supplied with air-5% carbon dioxide. Cells were harvested by centrifugation. They were washed with cold phosphate buffered saline pH 7.4 (PBS; NaCl, 7.1 g; Na2 HPO4, 1.15 g; KH2 PO4, 0.2 g; and KCl, 0.2 g/L). […] Calcium ionophore A23187 (5 μM) was added and cells were incubated for seven minutes at 37° C. The reaction was stopped by chilling the tubes in ice for ten minutes. Cells were separated by centrifugation and the supernatant was stored at -20°. Aliquots (100 μl) were analyzed for LTB4 and PGF2α using radioimmuno assay kits as provided by the supplier.

[3] = target: T2, 5-lipoxygenase (Rattus norvegicus, UniProt P12527); assay: ARBL RBL-1 whole cell 5-lipoxygenase assay (LTB4 by RIA); assay type: cell-based; conditions: RBL-1 intact cells, 5 μM A23187, LTB4
T2 construct: host or cells: RBL-1 (rat basophilic leukemia)
T2 sequence (P12527 1-673): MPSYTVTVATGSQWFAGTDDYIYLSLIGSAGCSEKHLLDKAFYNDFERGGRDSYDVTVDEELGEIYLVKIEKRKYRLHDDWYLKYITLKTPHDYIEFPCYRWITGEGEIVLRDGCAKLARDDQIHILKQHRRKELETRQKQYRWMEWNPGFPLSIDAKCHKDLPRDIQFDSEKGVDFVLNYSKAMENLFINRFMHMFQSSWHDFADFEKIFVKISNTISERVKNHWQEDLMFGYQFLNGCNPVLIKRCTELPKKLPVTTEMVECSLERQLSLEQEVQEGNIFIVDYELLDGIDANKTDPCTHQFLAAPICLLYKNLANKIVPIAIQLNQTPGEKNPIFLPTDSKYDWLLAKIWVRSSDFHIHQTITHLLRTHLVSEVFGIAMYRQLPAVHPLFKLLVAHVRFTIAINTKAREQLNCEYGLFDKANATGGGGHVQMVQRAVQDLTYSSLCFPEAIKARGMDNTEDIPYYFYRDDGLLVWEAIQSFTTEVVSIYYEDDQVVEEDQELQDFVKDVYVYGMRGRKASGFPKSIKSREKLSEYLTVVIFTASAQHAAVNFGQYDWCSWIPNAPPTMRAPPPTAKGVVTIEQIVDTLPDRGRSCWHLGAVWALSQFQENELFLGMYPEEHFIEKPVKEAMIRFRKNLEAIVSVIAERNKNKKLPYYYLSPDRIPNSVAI
Method: as §1, §2, §3, §4, §5

SMILES | UV max [1] | α [1] | IC50 [2] [µM] | IC50 [3] [µM]
COc1cc(C=Cc2cc(C)[nH]n2)ccc1O [Example 5, 3-[β-(4'-Hydroxy-3'-methoxyphenyl)ethenyl]-5-methyl-pyrazole] | 292 | 111.1 |  | 
COC(=O)C(=Cc1cc(C(C)(C)C)c(O)c(C(C)(C)C)c1)c1cc(C)no1 [Example 46, 5-[α-Carbomethoxy-β-(4'-hydroxy-3',5'-bis(1,1-dimethylethyl)phenyl)ethenyl]-3-methylisoxazole] |  |  | 2 | 10
Cc1cc(C=Cc2cc(Br)c(O)c(Br)c2)no1 [Example 54B] |  |  | 4.2 | 3.3

The remaining lines, values ahead:

UV max [1] | α [1] | IC50 [2] [µM] | IC50 [3] [µM] | SMILES
 | 132.2 |  |  | Nc1ccc(C(=O)O)cc1 [p-aminobenzoic acid, reference compound]
 |  | 14.5 | 5.7 | Cc1cc(C=Cc2cc(Br)c(O)c(Br)c2)n[nH]1 [Example 58, 3-[β-(4'-Hydroxy-3',5'-dibromophenyl)ethenyl]-5-methylpyrazole]
